Reference: US20130089601A1, “METHOD FOR TREATING ATHEROSCLEROSIS” (KAOHSIUNG MEDICAL UNIVERSITY, priority 2009, published 2013)

Legend:
MCP-1 = MCP-1 secreted from VSMC, sandwich enzyme immunoassay; format: cell-based, human
Method: Monocyte chemotactic protein-1 (MCP-1) is a well established atherosclerotic biomarker and it was examined to further test for the influence of microRNA-195 on the atherogenic biomarker. VSMC cells in six-well plates were grown to confluence and then cultivated in a serum-free medium for 24 hours before the experiment. After transfection of microRNA-195 for 24 hours, the cells were further incubated with ox-LDL and simvastatin for another 24 hours. The supernatants of the conditioned medium were collected and frozen at −70° C. The culture supernatants were analyzed to determine the MCP-1 using Sandwich Enzyme Immunoassay kits (BD Biosciences) according to the manufacturer protocol.

eNOS = assay: Real-time qPCR of eNOS mRNA in HUVECs co-cultured with transfected HASMCs; format: cell-based, human; details: co-cultured with microRNA-195-transfected HASMCs
Method: HASMCs were transfected with negative control microRNA or microRNA-195 with or without the presence of oxLDL. MicroRNA-195-transfected HASMCs were co-cultured with HUVEC. Real-time qPCR analysis of mRNA levels for genes surrogating endothelial functions as well as atherosclerosis, such as vascular cell adhesion molecule-1 (VCAM-1), […] (TNF-a) and interleukin-6 (IL-6), and vasodilation gene, endothelial nitric oxide synthase (eNOS), were determined in HUVECs.

## microRNA-195: Pre-miR miRNA, hsa-miR-195 (product ID PM10827), Ambion Inc., which mimics precursor for mature human miR-195; mimic 5′-UAGCAGCACAGAAAUAUUGGC-3′ (SEQ ID NO: 5) (chemistry not given here)
MCP-1; ox-LDL stimulation
  effect on reducing the atherogenic biomarker (MCP-1) compared with simvastatin: stronger effect
MCP-1; transfection 24 hours then ox-LDL 24 hours, culture supernatant
  MCP-1 levels: significantly decrease
eNOS
  eNOS mRNA level in HUVECs: increases
